Values after ≈ are worked out from the molar mass of the structure shown.
Test system: Klebsiella pneumoniae
Assay: Antimicrobial activity against multidrug-resistant Klebsiella pneumoniae isolate Kpn-DK2 by broth microdilution method
Format: functional

Point of comparison: `C[C@@H](O)[C@H]1C(=O)N2C(C(=O)O)=C(S[C@@H]3CN[C@H](CNS(N)(=O)=O)C3)[C@H](C)[C@H]12` [DORIPENEM], MIC 16 µg/mL (≈ 38 µM). Against it:
- COc1cc(Cc2cnc(N)nc2N)cc(OC)c1OC [TRIMETHOPRIM] — higher, > 32 µg/mL
- CC1(C)S[C@@H]2[C@H](NC(=O)[C@H](N)c3ccccc3)C(=O)N2[C@H]1C(=O)O [AMPICILLIN] — higher, > 64 µg/mL
- C[C@@H](O)[C@H]1C(=O)N2C(C(=O)O)=C(SCCNC=N)C[C@H]12 [IMIPENEM ANHYDROUS] — 2-fold higher, 32 µg/mL (≈ 107 µM)
- CCN1CCN(C(=O)N[C@@H](C(=O)N[C@@H]2C(=O)N3C(C(=O)O)=C(CSc4nnnn4C)CS[C@H]23)c2ccc(O)cc2)C(=O)C1=O [CEFOPERAZONE] — higher, > 64 µg/mL
- Nc1nc(/C(=N/O)C(=O)N[C@@H]2C(=O)N3C(C(=O)O)=C(/C=C4\CCN([C@@H]5CCNC5)C4=O)CS[C@H]23)ns1 [CEFTOBIPROLE] — higher, > 32 µg/mL
- GENTAMICIN — higher, > 64 µg/mL
- CCN1CCN(C(=O)N[C@@H](C(=O)N[C@@H]2C(=O)N3[C@@H]2SC(C)(C)[C@@H]3C(=O)O)c2ccccc2)C(=O)C1=O [PIPERACILLIN] — higher, > 256 µg/mL
- CN(C)c1cc(NC(=O)CNC(C)(C)C)c(O)c2c1C[C@H]1C[C@H]3[C@H](N(C)C)C(O)=C(C(N)=O)C(=O)[C@@]3(O)C(O)=C1C2=O [TIGECYCLINE] — 4-fold lower, 4 µg/mL (≈ 6.83 µM)
- CC1(C)[C@H](C(=O)O)N2C(=O)C[C@H]2S1(=O)=O [SULBACTAM] — 2-fold higher, 32 µg/mL (≈ 137 µM)
- C[C@H]1[C@H](NC(=O)/C(=N\OC(C)(C)C(=O)O)c2csc(N)n2)C(=O)N1S(=O)(=O)O [AZTREONAM] — higher, > 64 µg/mL
- COLISTIN — higher, > 64 µg/mL
- CC(C)(O/N=C(\C(=O)N[C@@H]1C(=O)N2C(C(=O)[O-])=C(C[n+]3ccccc3)CS[C@H]12)c1csc(N)n1)C(=O)O [CEFTAZIDIME] — higher, > 64 µg/mL
- C[C@]1(Cn2ccnn2)[C@H](C(=O)O)N2C(=O)C[C@H]2S1(=O)=O [TAZOBACTAM] — 4-fold lower, 4 µg/mL (≈ 13.3 µM)
- POLYMYXIN B — higher, > 64 µg/mL
- CO/N=C(\C(=O)N[C@@H]1C(=O)N2C(C(=O)[O-])=C(C[N+]3(C)CCCC3)CS[C@H]12)c1csc(N)n1 — higher, > 64 µg/mL
- CO/N=C(\C(=O)N[C@@H]1C(=O)N2C(C(=O)O)=C(COC(C)=O)CS[C@H]12)c1csc(N)n1 [CEFOTAXIME] — higher, > 128 µg/mL
